Activity calls are given as the source filed them. No cut-off for these calls is given here.
Columns and labels:
P388 = experiment: In vivo antitumor activity against mouse P388 cells at 30 to 50 mg/kg, ip relative to control; format: functional; conditions: for T/C: dose mg/kg 30-50, route intraperitoneal
B16 = experiment: Cytotoxicity against mouse B16 cells; format: functional, cell-based

COc1cc2c[n+](C)c3c4cc5c(cc4ccc3c2cc1OC)OCO5.[Cl-] [NITIDINE CHLORIDE]
T/C (P388): 240% | Activity (B16): inactive

COc1cc2cnc3c4cc5c(cc4ccc3c2cc1OC)OCO5
Activity (P388): inactive

COc1cc2c(cc1OC)-c1ccc3cc4c(cc3c1N(C)C2)OCO4
Activity (P388): inactive

COc1cc2c(=O)n(C)c3c4cc5c(cc4ccc3c2cc1OC)OCO5
Activity (P388): inactive

COc1cc2c(cc1OC)C(OC)N(C)c1c-2ccc2cc3c(cc12)OCO3 (stereo unspecified)
T/C (P388): 240%
